Assay results taken from paper PMC9578392, “Safety, Tolerability, and Pharmacokinetics of the Novel Antiviral Agent Ensitrelvir Fumaric Acid, a SARS-CoV-2 3CL Protease Inhibitor, in Healthy Adults” (Antimicrobial Agents and Chemotherapy, 2022).
Entries after “also recorded” stand apart in the source; their conditions may differ. Where two headings read alike, the source gives them in different places.

Key:
[1] = Single ascending oral dose pharmacokinetics (part 1, plasma and urine, fasted); assay type: in vivo, human; conditions: for Feu0-144: urine; for AUC(0-inf) / AUC(0-t) / Cmax / MRT / Vd/F / half-life / Tmax / CL renal: human, oral; for AUC(0-inf) / AUC(0-t) / Cmax / MRT / Vd/F / half-life / Tmax: plasma; for Vd/F: read-out: Vz/F; for CL renal: urine and plasma
[2] = Effect of food on pharmacokinetics (cohort C, 250 mg crossover); assay type: in vivo, human; conditions: for Tmax / AUC(0-inf) / AUC(0-t) / Cmax / half-life: human, plasma, oral, 250 mg; for AUC(0-inf): read-out: AUC0-inf, GLS mean; for AUC(0-t): read-out: AUC0-last, GLS mean; for Cmax: read-out: Cmax, GLS mean; for half-life: read-out: t1/2,z, GLS mean (converted)
Protocol: In part 1, Japanese participants were randomized to receive placebo or single dose of ensitrelvir (20, 70, 250, 500, 1,000, and 2,000 mg given to cohorts A, B, C, D, E, and J, respectively), suspended in 0.5% methylcellulose, in the fasted state. Additionally, in cohort C, the effect of food on the pharmacokinetics of ensitrelvir was investigated in a 2-group, 2-period crossover design by administering placebo or ensitrelvir (250 mg) in the fasted or fed (high-fat/high-calorie) state. In part 2, Japanese participants were randomized to receive placebo or multiple doses of ensitrelvir, suspended in 0.5% methylcellulose. The multiple-dose regimens were as follows: once-daily doses of ensitrelvir 375 mg on day 1 and 125 mg on days 2 to 5 (cohort F), or 750 mg on day 1 and 250 mg on days 2 to 6 (cohort G) in the fasted state. White participants were randomized to receive placebo or multiple doses of ensitrelvir. The multiple-dose regimens were as follows: once-daily doses of ensitrelvir 375 mg on day 1 and 125 mg on days 2 to 5 (cohort H). Each cohort included 11 participants. In cohort G, the effect of ensitrelvir on the pharmacokinetics of midazolam (syrup) was evaluated in an open label self-controlled crossover design. Midazolam 2 mg alone was administered 2 days prior to initiating ensitrelvir administration (on day −2) and midazolam was coadministered on day 6 with placebo or ensitrelvir in the fasted state to participants following once-daily doses for 5 days of placebo (days 1 to 5) or ensitrelvir (750 mg on day 1 and 250 mg on days 2–5).
Blood and urine samples were collected and analyzed at several time points to determine the concentration of ensitrelvir and midazolam. For single-dose administration, blood samples were collected predose (0 h) and 0.5, 1, 1.5, 2, 2.5, 3, 4, 6, 8, 12, 24, 36, 48, 60, 72, 96, 120, and 144 h postdose on day 1 at 20 mg (cohort A); predose (0 h) and 0.5, 1, 1.5, 2, 2.5, 3, 4, 6, 8, 12, 24, 36, 48, 60, 72, 96, 120, 144, 192, and 336 h postdose on day 1 at 70, 500, 1,000, and 2,000 mg (cohorts B, D, E, and J); and predose (0 h) and 0.5, 1, 1.5, 2, 2.5, 3, 4, 6, 8, 12, 24, 36, 48, 60, 72, 96, 120, and 144, 192, and 336 h postdose on days 1 and 15 at 250 mg (cohort C). Urine samples were collected at 0 to 24, 24 to 48, 48 to 72, 72 to 96, 96 to 120, and 120 to 144 h postdose on day 1 at 20, 70, 500, and 1,000 mg (cohorts A, B, D, and E); and 0 to 24, 24 to 48, 48 to 72, 72 to 96, 96 to 120, and 120 to 144 h postdose on days 1 and 15 at 250 mg (cohort C). For multiple-dose administration, blood samples were collected predose (0 h) and 0.5, 1, 1.5, 2, 2.5, 3, 4, 6, 8, and 12 h postdose on day 1; predose (0 h) on days 2 to 4; and predose (0 h) and 0.5, 1, 1.5, 2, 2.5, 3, 4, 6, 8, 12, and 24 h postdose on day 5 to evaluate the pharmacokinetics of ensitrelvir. Blood samples were also collected predose (0 h) and 0.5, 1, 2, 3, 4, 5, 6, 8, 12, and 24 h postdose on […] to evaluate the pharmacokinetics of midazolam.
Pharmacokinetic parameters were estimated based on the plasma concentration time data for ensitrelvir and midazolam by noncompartmental analysis (Phoenix WinNonlin version 6.2.1, Certara USA Inc., Princeton, NJ, USA). Dose proportionality assessments included the Cmax, area under the plasma concentration-time curve (AUC0-last, AUC0-inf, and AUC0-τ), and dose independency included t1/2,z, terminal elimination rate constant (λz), MRT, CL/F, and Vz/F. Urine pharmacokinetic parameters for ensitrelvir were calculated based on the urine concentrations of ensitrelvir and urine volume with noncompartmental analysis. Feu0-144 was calculated after single-dose administration. Additionally, renal clearance (CLR) was calculated using the cumulative amount of the drug excreted in urine and AUC in plasma for ensitrelvir. […]

[3] = cohort/dose A/20 mg, single dose, geometric mean (%CV)
[4] = cohort/dose B/70 mg, single dose, geometric mean (%CV)
[5] = cohort/dose C/250 mg, single dose, geometric mean (%CV)
[6] = cohort/dose D/500 mg, single dose, geometric mean (%CV)
[7] = cohort/dose E/1000 mg, single dose, geometric mean (%CV)
[8] = cohort/dose J/2000 mg, single dose, geometric mean (%CV)
[9] = Cohort C/250 mg single dose, Fasted
[10] = Cohort C/250 mg single dose, Fed

In the case of `Cn1cnc(Cn2c(=O)[nH]/c(=N\c3cc4cn(C)nc4cc3Cl)n(Cc3cc(F)c(F)cc3F)c2=O)n1` [Ensitrelvir, ensitrelvir fumaric acid], the CL/F [1, 3] is reported as 0.219 (24.3) L/h, the Feu0-144 [1, 3] is reported as 12.9 (14.6) % and the CL/F [1, 4] is reported as 0.241 (15.7) L/h. For the same molecule, the Feu0-144 [1, 4] was 14.7 (27.4) %, the CL/F [1, 5] was 0.274 (16.2) L/h and the Feu0-144 [1, 5] was 16.0 (16.6) %. For the same molecule, the CL/F [1, 6] was 0.252 (16.1) L/h, the Feu0-144 [1, 6] was 21.8 (15.4) % and the CL/F [1, 7] was 0.297 (35.5) L/h. For the same molecule, the Feu0-144 [1, 7] was 19.4 (29.5) %, the CL/F [1, 8] was 0.315 (22.2) L/h and the AUC(0-inf) [1, 3] was 91.4 µg·h/mL. The AUC(0-t) [1, 3] was 82 µg·h/mL, the Cmax [1, 3] was 1700 ng/mL and the MRT [1, 3] was 61.8 h. For the same molecule, the Vd/F [1, 3] was 13.5 L, the half-life ([1]; cohort/dose A/20 mg, single dose, geometric mean (%CV), read-out: t1/2,z (converted)) was 42.6 h and the Tmax ([1]; cohort/dose A/20 mg, single dose, median (min, max), read-out: Tmax) was 2.5 h. For the same molecule, the AUC(0-inf) [1, 4] was 291 µg·h/mL, the AUC(0-t) [1, 4] was 289 µg·h/mL and the Cmax [1, 4] was 5200 ng/mL. It also gave an MRT [1, 4] of 67.3 h, a Vd/F [1, 4] of 15.9 L and a half-life ([1]; cohort/dose B/70 mg, single dose, geometric mean (%CV), read-out: t1/2,z (converted)) of 45.7 h. It also gave a Tmax ([1]; cohort/dose B/70 mg, single dose, median (min, max), read-out: Tmax) of 1.5 h, an AUC(0-inf) [1, 5] of 914 µg·h/mL and an AUC(0-t) [1, 5] of 907 µg·h/mL. For the same molecule, the Cmax [1, 5] was 15200 ng/mL, the MRT [1, 5] was 73.4 h and the Vd/F [1, 5] was 17 L. For the same molecule, the half-life ([1]; cohort/dose C/250 mg, single dose, geometric mean (%CV), read-out: t1/2,z (converted)) was 43.1 h, the Tmax ([1]; cohort/dose C/250 mg, single dose, median (min, max), read-out: Tmax) was 2.5 h and the AUC(0-inf) [1, 6] was 1990 µg·h/mL. It also gave an AUC(0-t) [1, 6] of 1980 µg·h/mL, a Cmax [1, 6] of 32600 ng/mL and an MRT [1, 6] of 68.2 h. It also gave a Vd/F [1, 6] of 15.3 L, a half-life ([1]; cohort/dose D/500 mg, single dose, geometric mean (%CV), read-out: t1/2,z (converted)) of 42.2 h and a Tmax ([1]; cohort/dose D/500 mg, single dose, median (min, max), read-out: Tmax) of 2 h. For the same molecule, the AUC(0-inf) [1, 7] was 3370 µg·h/mL, the AUC(0-t) [1, 7] was 3340 µg·h/mL and the Cmax [1, 7] was 63800 ng/mL. The MRT [1, 7] was 70.3 h, the Vd/F [1, 7] was 20.6 L and the half-life ([1]; cohort/dose E/1000 mg, single dose, geometric mean (%CV), read-out: t1/2,z (converted)) was 48.1 h. The Tmax ([1]; cohort/dose E/1000 mg, single dose, median (min, max), read-out: Tmax) was 2.75 h, the AUC(0-inf) [1, 8] was 6350 µg·h/mL and the AUC(0-t) [1, 8] was 6310 µg·h/mL. For the same molecule, the Cmax [1, 8] was 96900 ng/mL, the MRT [1, 8] was 67.4 h and the Vd/F [1, 8] was 19.6 L. It also gave a half-life ([1]; cohort/dose J/2000 mg, single dose, geometric mean (%CV), read-out: t1/2,z (converted)) of 43.1 h, a Tmax ([1]; cohort/dose J/2000 mg, single dose, median (min, max), read-out: Tmax) of 4 h and a half-life ([1]; single dose 20 to 2,000 mg, range across dose groups, read-out: geometric mean terminal elimination half-life (t1/2,z)) of 42.2 to 48.1 h. The Tmax ([1]; single dose 20 to 2,000 mg, range across dose groups, read-out: median time to maximum plasma concentration (Tmax)) was 1.5 to 4 h, the CL renal [1, 3] was 0.523 mL/min and the CL renal [1, 4] was 0.668 mL/min. The CL renal [1, 5] was 0.845 mL/min, the CL renal [1, 6] was 1.04 mL/min and the CL renal [1, 7] was 1.11 mL/min. For the same molecule, the “reduction of Cmax by food intake” value ([2]; 250 mg single dose, fed vs fasted) was 15%, the “effect of food intake on AUC” value ([2]; 250 mg single dose, high-fat/high-calorie meal) was “did not impact; also recorded: did not affect” and the “AUC0-inf, GLS mean (90% CI) ratio (fed/fasted)” value ([2]; Cohort C/250 mg single dose) was 1.0460 (1.0047/1.0891). The “AUC0-last, GLS mean (90% CI) ratio (fed/fasted)” value ([2]; Cohort C/250 mg single dose) was 1.0470 (1.0061/1.0895), the “Cmax, GLS mean (90% CI) ratio (fed/fasted)” value ([2]; Cohort C/250 mg single dose) was 0.8508 (0.7507/0.9644) and the “t1/2,z, GLS mean (90% CI) ratio (fed/fasted)” value ([2]; Cohort C/250 mg single dose) was 0.9385 (0.8893/0.9905). It also gave a Tmax ([2]; 250 mg single dose, fasted state) of 2.5 h, a Tmax ([2]; 250 mg single dose, fed state) of 8 h and an AUC(0-inf) [2, 9] of 914 µg·h/mL. For the same molecule, the AUC(0-t) [2, 9] was 907 µg·h/mL, the Cmax [2, 9] was 15200 ng/mL and the half-life [2, 9] was 43.1 h. For the same molecule, the AUC(0-inf) [2, 10] was 956 µg·h/mL, the AUC(0-t) [2, 10] was 949 µg·h/mL and the Cmax [2, 10] was 13000 ng/mL. For the same molecule, the half-life [2, 10] was 40.5 h.
